Results: paper PMC6277767, “Broad and Region-Specific Impacts of the Synthetic Cannabinoid CP 55,940 in Adolescent and Adult Female Mouse Brains” (Frontiers in Molecular Neuroscience, 2018)

Tested on: CD1 female mouse brain lipidome
Test: Brain-region lipid levels (HPLC/MS/MS lipidomics) 2 h after single i.p. 3 mg/kg CP 55,940 vs vehicle
Assay type: in vivo
Design: N-arachidonoyl phenylalanine level, Mean / N-stearoyl tryptophan level, Mean / N-stearoyl proline level, Mean / N-stearoyl leucine level, Mean / N-stearoyl phenylalanine level, Mean / N-stearoyl serine level, Mean / N-stearoyl methionine level, Mean: unit: moles per gram
Protocol: The Bloomington Institutional Animal Care and Use Committee of Indiana University reviewed and approved the animal procedures. Female mice from the CD1 strain were utilized to match our study examining THC’s effects on the brain lipidome ([Leishman et al., 2018]). Mice were given a single i.p. injection of either 3 mg/kg CP or 1:1:18 cremophor:ethanol:saline vehicle (please refer to the section “3 mg/kg CP Is Relevant for Synthetic Cannabinoid Abuse and Has Stronger Effects on the Female Mouse Brain Lipidome During Adolescence” for a justification of dose and use of female mice). Three different age groups were given injections: PND 35 and PND 50 adolescents, and adult mice (PND 113). At least eight mice in each age group received CP and at least eight received vehicle. Matching the THC study time course ([Leishman et al., 2018]), mice were sacrificed via rapid decapitation 2 h after injection. Brains were immediately removed and flash-frozen in liquid nitrogen, and then stored at -80°C until dissections were performed. Brains were dissected on an ice-cold dissection plate into the following regions: STR, HIPP, CER, THAL, CTX, HYP, MID, and STEM. These abbreviations for these brain areas will be used exclusively when discussing the results generated by these specific dissections. Each dissected area was immediately placed in liquid nitrogen and then stored at -80°C until used for lipid extraction.
Tissue extracts were performed as previously described ([Bradshaw et al., 2006]; [Stuart et al., 2013]; [Raboune et al., 2014]; [Leishman et al., 2016a],[b], [2017], [2018]). First, samples were shock frozen in liquid nitrogen, weighed, and transferred to a centrifuge tube. The mass of the largest sample was multiplied by 50 to determine how many milliliters of HPLC-grade methanol (Fisher, Fair Lawn, NJ, United States) to add. Then, samples were spiked with 500 pmol deuterium-labeled NAGly (d8NAGly; Cayman Chemical, Ann Arbor, MI, United States). Samples were placed on ice in darkness for 2 h then individually homogenized and centrifuged at 19,000 × g for 20 min at 20°C. Supernatants were diluted with HPLC water (purified in house) to make a solution of 75% water, 25% supernatant. Lipids were partially purified on C18 solid phase extraction columns (Agilent, Palo Alto, CA, United States). A series of four elutions with 1.5 mL of 60%, 75%, 85%, and 100% methanol were collected ([Stuart et al., 2013]; [Leishman et al., 2016a],[b], [2018]).
As previously described ([Bradshaw et al., 2006]; [Tan et al., 2006]; [Smoum et al., 2010]; [Stuart et al., 2013]; [Tortoriello et al., 2013]; [Raboune et al., 2014]; [Leishman et al., 2016a],[b], [2017], [2018]), samples were analyzed using an Applied Biosystems API 3000 triple quadrupole mass spectrometer with electrospray ionization (Foster City, CA, United States). Using an Agilent XDB-C18 reversed phase analytical column and optimized mobile phase gradients, 20 μL from each elution were chromatographed. Two Shimadzu 10ADvp pumps (Columbia, MD, United States) provided the pressure for gradient elution. Mobile phase A: 20% methanol, 80% water (v/v) and 1 mM ammonium acetate (Sigma, St. Louis, MO, United States). Mobile phase B: 100% methanol, 1 mM ammonium acetate. Every method run began with 0% mobile phase B, reached 100% mobile phase B flowing at 0.2 mL/min, and gradually returned to 0% mobile phase B.
This screening library will be referred to as the lipidome when discussing data from this study. HPLC/MS/MS data were analyzed using Analyst software (Applied Biosystems) ([Bradshaw et al., 2006]; [Tan et al., 2006]; [Stuart et al., 2013]; [Tortoriello et al., 2013]; [Raboune et al., 2014]; [Leishman et al., 2016a],[b], [2017], [2018]). Chromatograms (Supplementary Figure 3) were generated by determining the retention time of analytes from the analytical column with a [M-1] or [M+1] parent peak and a fragmentation peak corresponding to the programmed values. […]

[1] = adult hypothalamus, 3mg/kg CP 55,940, p .001
[2] = adult hypothalamus, 3mg/kg CP 55,940, p .002
[3] = adult hypothalamus, 3mg/kg CP 55,940, p .005
[4] = adult hypothalamus, 3mg/kg CP 55,940, p .020
[5] = adult hypothalamus, 3mg/kg CP 55,940, p .036
[6] = adult hypothalamus, 3mg/kg CP 55,940, p .060
[7] = adult hypothalamus, 3mg/kg CP 55,940, p .073
[8] = adult midbrain, 3mg/kg CP 55,940
[9] = adult midbrain, 3mg/kg CP 55,940, p .000
[10] = adult midbrain, 3mg/kg CP 55,940, p .003
[11] = adult midbrain, 3mg/kg CP 55,940, p .023

CCCCCCC(C)(C)c1ccc([C@@H]2C[C@H](O)CC[C@H]2CCCO)c(O)c1 [CP 55,940]
THC level, Mean (adult hypothalamus, 3 mg/kg CP 55,940): BDL
PGF2α Direction (relative to Veh) [1]: ↓
PGF2α Magnitude (x Veh level) [1]: 0.79
phosphoLEA Direction (relative to Veh) [2]: ↓
phosphoLEA Magnitude (x Veh level) [2]: 0.74
6-ketoPGF1α Direction (relative to Veh) [3]: ↓
6-ketoPGF1α Magnitude (x Veh level) [3]: 0.61
N-palmitoyl phenylalanine Direction (relative to Veh) [4]: ↑
N-palmitoyl phenylalanine Magnitude (x Veh level) [4]: 1.86
PGE2 Direction (relative to Veh) [5]: ↑
PGE2 Magnitude (x Veh level) [5]: 1.18
N-arachidonoyl taurine Direction (relative to Veh) [6]: ↑
N-arachidonoyl taurine Magnitude (x Veh level) [6]: 1.24
N-arachidonoyl GABA Direction (relative to Veh) [7]: ↓
N-arachidonoyl GABA Magnitude (x Veh level) [7]: 0.83
2-arachidonoyl glycerol level, Mean [8]: 3.47E-09
2-linoleoyl glycerol level, Mean [8]: 3.28E-10
2-oleoyl glycerol level, Mean [8]: 4.34E-09
2-palmitoyl glycerol level, Mean [8]: 8.64E-11
6-ketoPGF1α level, Mean [8]: 3.28E-11
11-OH-THC level, Mean [8]: BDL
11-nor-9-carboxyTHC level, Mean [8]: BDL
Arachidonic acid level, Mean [8]: 5.39E-10
Cannabidiol level, Mean [8]: BDL
Linoleic acid level, Mean [8]: 2.55E-10
N- stearoyl valine level, Mean [8]: 3.08E-14
N-arachidonoyl GABA level, Mean [8]: 2.05E-11
N-arachidonoyl alanine level, Mean [8]: 8.5E-13
N-arachidonoyl dopamine level, Mean [8]: BDL
N-arachidonoyl ethanolamine level, Mean [8]: 1.42E-11
N-arachidonoyl glycine level, Mean [8]: 7.94E-13
N-arachidonoyl phenylalanine level, Mean [8]: 2.39E-13
N-arachidonoyl proline level, Mean [8]: BDL
N-arachidonoyl serine level, Mean [8]: 4.34E-13
N-arachidonoyl taurine level, Mean [8]: 5.5E-11
N-arachidonoyl tryptophan level, Mean [8]: BDL
N-arachidonoyl tyrosine level, Mean [8]: 1.09E-12
N-docosahexaenoyl GABA level, Mean [8]: 8.66E-12
N-docosahexaenoyl ethanolamine level, Mean [8]: 3.34E-11
N-docosahexaenoyl glycine level, Mean [8]: 1.02E-13
N-docosahexaenoyl methionine level, Mean [8]: BDL
N-docosahexaenoyl phenylalanine level, Mean [8]: 1.11E-13
N-docosahexaenoyl proline level, Mean [8]: BDL
N-docosahexaenoyl tryptophan level, Mean [8]: BDL
N-linoleoyl alanine level, Mean [8]: 4.8E-13
N-linoleoyl ethanolamine level, Mean [8]: 1.5E-11
N-linoleoyl glycine level, Mean [8]: 4.47E-14
N-linoleoyl methionine level, Mean [8]: BDL
N-linoleoyl proline level, Mean [8]: BDL
N-linoleoyl serine level, Mean [8]: 2.09E-11
N-linoleoyl tryptophan level, Mean [8]: BDL
N-linoleoyl tyrosine level, Mean [8]: BDL
N-nervonoyl valine level, Mean [8]: BDL
N-oleoyl GABA level, Mean [8]: 1.69E-11
N-oleoyl alanine level, Mean [8]: 2.56E-12
N-oleoyl dopamine level, Mean [8]: BDL
N-oleoyl ethanolamine level, Mean [8]: 3.41E-10
N-oleoyl glycine level, Mean [8]: 4.95E-13
N-oleoyl leucine level, Mean [8]: 1.1E-12
N-oleoyl phenylalanine level, Mean [8]: 1.49E-12
N-oleoyl proline level, Mean [8]: BDL
N-oleoyl serine level, Mean [8]: 1.28E-10
N-oleoyl tryptophan level, Mean [8]: BDL
N-oleoyl tyrosine level, Mean [8]: 7.3E-13
N-oleoyl valine level, Mean [8]: 2.38E-14
N-palmitoyl GABA level, Mean [8]: 2.91E-11
N-palmitoyl alanine level, Mean [8]: 1.61E-12
N-palmitoyl ethanolamine level, Mean [8]: 6.9E-11
N-palmitoyl glycine level, Mean [8]: 1.85E-12
N-palmitoyl leucine level, Mean [8]: 2.19E-12
N-palmitoyl methionine level, Mean [8]: 2.91E-12
N-palmitoyl phenylalanine level, Mean [8]: 1.17E-12
N-palmitoyl proline level, Mean [8]: BDL
N-palmitoyl tryptophan level, Mean [8]: BDL
N-palmitoyl tyrosine level, Mean [8]: 1.01E-12
N-palmitoyl valine level, Mean [8]: 1.76E-13
N-stearoyl GABA level, Mean [8]: 1.9E-11
N-stearoyl alanine level, Mean [8]: 2.08E-12
N-stearoyl ethanolamine level, Mean [8]: 1.35E-11
N-stearoyl glycine level, Mean [8]: 2.96E-12
N-stearoyl leucine level, Mean [8]: 1.09E-12
N-stearoyl methionine level, Mean [8]: 4.14E-13
N-stearoyl phenylalanine level, Mean [8]: 7.89E-13
N-stearoyl proline level, Mean [8]: BDL
N-stearoyl serine level, Mean [8]: 1.92E-11
N-stearoyl tryptophan level, Mean [8]: BDL
Oleic acid level, Mean [8]: 4.73E-10
PGE2 level, Mean [8]: 2.39E-10
PhosphoLEA level, Mean [8]: 2.38E-11
THC level, Mean [8]: BDL
2-arachidonoyl glycerol, Direction (relative to Veh) [9]: ↓
2-arachidonoyl glycerol, Magnitude (x Veh level) [9]: 0.80
2-oleoyl glycerol, Direction (relative to Veh) [9]: ↓
2-oleoyl glycerol, Magnitude (x Veh level) [9]: 0.74
Arachidonic acid, Direction (relative to Veh) [9]: ↓
Arachidonic acid, Magnitude (x Veh level) [9]: 0.78
2-linoleoyl glycerol Direction (relative to Veh) [10]: ↓
2-linoleoyl glycerol Magnitude (x Veh level) [10]: 0.77
phosphoLEA Direction (relative to Veh) [10]: ↓
phosphoLEA Magnitude (x Veh level) [10]: 0.70
N-palmitoyl ethanolamine, Direction (relative to Veh) [11]: ↓
N-palmitoyl ethanolamine, Magnitude (x Veh level) [11]: 0.82
